Reference: article PMC9728921, “Characterization of a KDM5 small molecule inhibitor with antiviral activity against hepatitis B virus” (PLOS ONE, 2022)

Assays:
NSD1 = target: T1, NSD1 (Homo sapiens, UniProt Q96L73); assay: Histone methyltransferase enzymatic assay, NSD1; assay type: biochemical; details: enzyme conc. 50 nM
T1 construct: 1538-2696; purchased RBC (read as Reaction Biology Corporation, named)
Description: (§1) Histone methyltransferase assays were performed in 96-well half-area optiplates (PerkinElmer) at room temperature. All concentrations are final unless noted otherwise. Compounds were serially diluted in DMSO and the final DMSO concentration was 1%. A 24 μL reaction mixture contained compound, enzyme, 200 nM of nucleosome or histone substrate, 400 nM ^3H-SAM (83.1 Ci/mmol), 50 mM Tris-HCl (pH 8.0), 50 mM NaCl, 5 mM MgCl2, 1 mM DTT, and 0.01% Tween-20. The plate was sealed, mixed on a Titramax plate shaker at 1200 rpm for 30 sec, and incubated at room temperature for 60 min. The reaction was quenched by addition of 24 μL mixture containing 5 mg/mL PVT-PEI beads and 300 μM unlabeled SAM in water. The plate was sealed, mixed as previously noted, incubated overnight, and read on a TopCount plate reader (PerkinElmer).
(§2) Data was analyzed using GraphPad Prism 6.0 (La Jolla, CA). […] IC50 values were calculated as an average of at least two independent experiments.

NSD3 = target: T2, NSD3 (Homo sapiens, UniProt Q9BZ95); assay: Histone methyltransferase enzymatic assay, NSD3; assay type: biochemical; details: enzyme conc. 100 nM
T2 construct: 1021-1322; purchased RBC (read as Reaction Biology Corporation, named)
T2 sequence (Q9BZ95 1021-1322): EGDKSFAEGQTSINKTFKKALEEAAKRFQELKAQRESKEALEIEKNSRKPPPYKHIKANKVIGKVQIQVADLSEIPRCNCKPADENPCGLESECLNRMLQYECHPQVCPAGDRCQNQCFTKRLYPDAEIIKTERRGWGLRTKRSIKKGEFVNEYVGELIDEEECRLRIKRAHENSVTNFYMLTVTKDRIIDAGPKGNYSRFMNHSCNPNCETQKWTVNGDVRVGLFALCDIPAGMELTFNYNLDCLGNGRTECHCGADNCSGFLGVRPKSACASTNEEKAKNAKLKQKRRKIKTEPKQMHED
Description: as §1, §2

SETDB1 = target: T3, SETDB1 (Homo sapiens, UniProt Q15047); assay: Histone methyltransferase enzymatic assay, SETDB1; assay type: biochemical; details: enzyme conc. 100 nM
T3 construct: 510-1290
Description: as §1, §2

GLP = target: T4, GLP (Homo sapiens, UniProt Q9H9B1); assay: Histone methyltransferase enzymatic assay, GLP; assay type: biochemical
T4 construct: 894-1298; purchased RBC (read as Reaction Biology Corporation, named)
T4 sequence (Q9H9B1 894-1298): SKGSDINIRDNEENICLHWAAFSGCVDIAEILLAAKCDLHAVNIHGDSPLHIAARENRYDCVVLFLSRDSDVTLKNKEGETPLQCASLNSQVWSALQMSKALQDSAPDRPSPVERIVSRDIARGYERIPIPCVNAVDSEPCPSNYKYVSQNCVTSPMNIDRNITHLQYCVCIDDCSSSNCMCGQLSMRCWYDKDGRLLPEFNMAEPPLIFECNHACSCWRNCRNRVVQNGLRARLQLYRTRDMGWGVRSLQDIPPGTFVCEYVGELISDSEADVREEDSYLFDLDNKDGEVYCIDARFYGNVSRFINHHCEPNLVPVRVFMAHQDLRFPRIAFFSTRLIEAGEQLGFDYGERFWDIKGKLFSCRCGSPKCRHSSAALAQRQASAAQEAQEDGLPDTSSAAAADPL
Description: as §1, §2

SET7/9 = target: T5, SET7/9 (Homo sapiens, UniProt Q8WTS6); assay: Histone methyltransferase enzymatic assay, SET7/9; assay type: biochemical; details: enzyme conc. 100 nM
T5 construct: 2-366; purchased RBC (read as Reaction Biology Corporation, named)
T5 sequence (Q8WTS6 2-366): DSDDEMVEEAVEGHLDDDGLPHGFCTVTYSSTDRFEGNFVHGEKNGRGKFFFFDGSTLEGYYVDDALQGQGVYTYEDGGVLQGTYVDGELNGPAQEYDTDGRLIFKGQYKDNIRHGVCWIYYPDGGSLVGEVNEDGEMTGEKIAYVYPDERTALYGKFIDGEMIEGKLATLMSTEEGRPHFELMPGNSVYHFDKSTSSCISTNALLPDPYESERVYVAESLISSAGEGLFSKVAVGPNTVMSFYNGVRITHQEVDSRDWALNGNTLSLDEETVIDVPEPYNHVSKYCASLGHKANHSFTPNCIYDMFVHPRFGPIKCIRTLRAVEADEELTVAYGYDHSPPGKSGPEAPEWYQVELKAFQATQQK
Description: as §1, §2

KDM5A = target: T6, KDM5A (Homo sapiens, UniProt P29375); assay: KDM5A enzymatic assay (CisBio HTRF); assay type: biochemical; details: enzyme concentration 2.5 nM; IC50 lower than enzyme concentration, likely underestimates potency
T6 construct: purchased Reaction Biology Corp (assay run there as a contract service)
Description: (§3) KDM5A and 5B were tested using CisBio HTRF assay platform by Reaction Biology Corp (Malvern, PA). All concentrations are final unless noted otherwise. Inhibitors were pre-incubated with 2.5 nM KDM5A or 1.2 nM KDM5B in a 5 μL reaction mixture containing 50 mM HEPES (pH 7.5), 50 mM NaCl, 0.01% Tween 20, 0.01% BSA for 15 min temperature. The reaction was initiated by addition of 5 μL of 50 nM Biotin-H3K4me3 and incubated with gentle shaking for 45 min at RT. The reaction was quenched with 10 mM EDTA and 200 mM potassium fluoride. Upon addition of Eu-Antibody and Streptavidine-XL665, the mixture was incubated for 2 hours in the dark. The fluorescence resonance energy transfer was measured using an excitation wavelength of 320 nm and emission wavelength of 665 nm on an Envision plate reader (Perkin Elmer).
as §2

KDM4B = target: T7, KDM4B (Homo sapiens, UniProt O94953); assay: KDM4B enzymatic assay (AlphaLISA); assay type: biochemical; details: enzyme concentration 1 nM
T7 sequence (O94953 1-1096): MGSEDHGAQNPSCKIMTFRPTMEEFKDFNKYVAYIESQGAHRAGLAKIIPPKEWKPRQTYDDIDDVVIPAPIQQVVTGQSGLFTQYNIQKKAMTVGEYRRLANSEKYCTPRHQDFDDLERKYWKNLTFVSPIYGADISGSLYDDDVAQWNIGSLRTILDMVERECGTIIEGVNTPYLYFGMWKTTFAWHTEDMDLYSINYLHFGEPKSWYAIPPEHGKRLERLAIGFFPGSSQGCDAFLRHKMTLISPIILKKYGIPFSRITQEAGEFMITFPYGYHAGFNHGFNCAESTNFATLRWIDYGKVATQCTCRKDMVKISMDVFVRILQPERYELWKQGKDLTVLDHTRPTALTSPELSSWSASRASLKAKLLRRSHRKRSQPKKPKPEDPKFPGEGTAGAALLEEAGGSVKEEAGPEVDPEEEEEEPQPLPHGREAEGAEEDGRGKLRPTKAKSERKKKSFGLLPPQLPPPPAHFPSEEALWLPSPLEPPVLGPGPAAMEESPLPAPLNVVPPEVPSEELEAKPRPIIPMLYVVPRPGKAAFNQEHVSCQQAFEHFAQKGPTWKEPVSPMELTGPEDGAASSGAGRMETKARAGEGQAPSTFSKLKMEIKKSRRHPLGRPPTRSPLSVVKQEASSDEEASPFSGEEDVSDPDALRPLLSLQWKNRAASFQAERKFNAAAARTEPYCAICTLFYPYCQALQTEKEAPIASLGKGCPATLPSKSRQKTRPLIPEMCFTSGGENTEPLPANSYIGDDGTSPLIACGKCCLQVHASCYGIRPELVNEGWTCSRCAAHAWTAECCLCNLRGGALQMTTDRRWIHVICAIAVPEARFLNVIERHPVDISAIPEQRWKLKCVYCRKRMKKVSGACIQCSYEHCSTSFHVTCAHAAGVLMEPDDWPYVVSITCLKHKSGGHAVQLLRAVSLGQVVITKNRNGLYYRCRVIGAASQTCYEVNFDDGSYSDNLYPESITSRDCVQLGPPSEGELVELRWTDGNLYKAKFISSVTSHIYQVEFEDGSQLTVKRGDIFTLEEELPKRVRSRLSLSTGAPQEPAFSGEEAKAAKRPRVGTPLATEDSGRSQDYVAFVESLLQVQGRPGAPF
Description: (§4) The following assay protocol was used for all histone demethylases tested except KDM1A, KDM5A, B, and D, which are described below. Compounds were serially diluted into a 384-well Alpha plate as a DMSO solution and mixed with 5 μL reaction buffer (buffer A) containing 50 mM HEPES (pH 7.0), 0.1% BSA, and 0.003% Tween-20. The enzyme of interest was pre-incubated with 15 μM of Fe^2+ for 10 min (except 30 min for KDM2B) in reaction buffer A. 5 μL of the enzyme mixture was added to each of the compound-containing wells and incubated for 10 min. The reaction was started by addition of a 5 μL mixture containing 300 nM peptide substrate, 75 μM L-ascorbic acid, and 30 μM α-ketoglutarate in buffer A. This final 15 μL of reaction mixture was incubated for 20 min for KDM5B and 1 hour for the other KDM enzymes. The reaction was quenched with 10 μL of diluted AlphaLISA Acceptor beads (1:400) in Epigenetics Buffer and incubated for 60 min. The Donor beads were diluted 1:400 into Epigenetics Buffer in the dark and 10 μL of this was added to each well and incubated for another 60 min in the dark. The assay plates were read on an Enspire plate reader (PerkinElmer) using a standard AlphaLISA program.
as §2

KDM2B = target: T8, KDM2B (Homo sapiens, UniProt Q8NHM5); assay: KDM2B enzymatic assay (AlphaLISA); assay type: biochemical; details: enzyme concentration 2 nM
T8 sequence (Q8NHM5 1-1336): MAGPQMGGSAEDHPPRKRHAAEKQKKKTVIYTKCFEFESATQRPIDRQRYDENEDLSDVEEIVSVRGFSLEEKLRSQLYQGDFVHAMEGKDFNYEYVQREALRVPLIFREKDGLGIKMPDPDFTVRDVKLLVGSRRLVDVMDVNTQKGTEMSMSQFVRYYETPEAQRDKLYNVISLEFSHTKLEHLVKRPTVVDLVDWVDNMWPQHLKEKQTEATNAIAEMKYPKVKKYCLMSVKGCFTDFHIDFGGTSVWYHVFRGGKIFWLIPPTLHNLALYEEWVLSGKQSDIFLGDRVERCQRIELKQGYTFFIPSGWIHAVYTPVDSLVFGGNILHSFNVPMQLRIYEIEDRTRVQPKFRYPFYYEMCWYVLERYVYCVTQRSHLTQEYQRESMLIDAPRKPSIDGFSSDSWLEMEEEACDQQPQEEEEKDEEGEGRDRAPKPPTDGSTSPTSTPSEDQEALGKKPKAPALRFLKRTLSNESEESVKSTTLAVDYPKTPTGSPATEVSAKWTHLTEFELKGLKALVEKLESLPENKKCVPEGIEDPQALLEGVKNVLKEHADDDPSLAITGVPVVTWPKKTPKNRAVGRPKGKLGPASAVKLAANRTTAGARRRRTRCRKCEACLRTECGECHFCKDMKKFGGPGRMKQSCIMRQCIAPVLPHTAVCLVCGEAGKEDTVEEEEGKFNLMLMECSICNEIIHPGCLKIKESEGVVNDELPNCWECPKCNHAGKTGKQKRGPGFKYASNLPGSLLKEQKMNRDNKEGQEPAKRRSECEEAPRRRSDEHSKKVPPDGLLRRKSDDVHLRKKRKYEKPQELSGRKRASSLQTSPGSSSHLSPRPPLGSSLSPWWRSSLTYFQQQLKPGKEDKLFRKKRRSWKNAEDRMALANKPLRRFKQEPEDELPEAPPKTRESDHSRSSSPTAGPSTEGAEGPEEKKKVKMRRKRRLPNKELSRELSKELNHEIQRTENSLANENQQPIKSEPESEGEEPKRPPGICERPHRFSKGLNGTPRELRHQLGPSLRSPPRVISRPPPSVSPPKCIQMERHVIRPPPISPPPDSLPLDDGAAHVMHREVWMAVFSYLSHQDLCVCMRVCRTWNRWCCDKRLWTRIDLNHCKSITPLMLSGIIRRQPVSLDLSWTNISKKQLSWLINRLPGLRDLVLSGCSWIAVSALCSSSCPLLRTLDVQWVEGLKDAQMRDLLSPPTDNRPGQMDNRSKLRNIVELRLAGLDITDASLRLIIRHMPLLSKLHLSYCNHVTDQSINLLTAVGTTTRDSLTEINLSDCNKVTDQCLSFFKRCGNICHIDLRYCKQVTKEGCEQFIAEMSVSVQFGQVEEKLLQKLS
Description: as §4, §2

KDM6A = KDM6A (Homo sapiens, UniProt O15550); assay: KDM6A enzymatic assay (AlphaLISA); assay type: biochemical; details: enzyme concentration 2 nM
Description: as §4, §2

[1] = Cytotoxicity CC50, Gal-HepG2; assay type: cell-based; details: human, Gal-HepG2 cells (galactose adapted hepatoblastoma cell line)
Text: (§5) a Values represent the geometric mean and multiplicative standard deviation of 3 – 5 primary human hepatocyte (PHH) donors or 5 – 10 independent experiments.
(§6) b MT-4: human T-lymphoblastoid cell line; PBMC: peripheral blood mononuclear cell; Gal-HepG2: galactose adapted human hepatoblastoma cell line; Huh-7: human hepatoma cell line; Gal-PC3: galactose adapted human prostate carcinoma cell line; MRC-5: Medical Research Council 5 embryonal lung fibroblast; NRVM: neonatal rat ventricular cardiomyocytes

Cytotoxicity CC50, PHH = assay type: cell-based; details: human, primary human hepatocytes (PHH)
Text: as §5, §6

Cytotoxicity CC50, PBMC = assay type: cell-based; details: human, PBMC (peripheral blood mononuclear cells)
Text: as §5, §6

Cytotoxicity CC50, MRC-5 = assay type: cell-based; details: human, MRC-5 cells (embryonal lung fibroblasts)
Text: as §5, §6

Cytotoxicity CC50, MT-4 = assay type: cell-based; details: human, MT-4 cells (T-lymphoblastoid cell line)
Text: as §5, §6

Cytotoxicity CC50, NRVM = assay type: cell-based; details: rat, NRVM (neonatal rat ventricular cardiomyocytes)
Text: as §5, §6

Cytotoxicity CC50, Huh-7 = assay type: cell-based; details: human, Huh-7 cells (hepatoma cell line)
Text: as §5, §6

[2] = Cytotoxicity CC50, Gal-PC3; assay type: cell-based; details: human
Text: as §5, §6

KDM7B = KDM7B (Homo sapiens, UniProt Q9UPP1); assay: KDM7B enzymatic assay (AlphaLISA); assay type: biochemical; details: enzyme concentration 2.5 nM
Chain of KDM7B (Q9UPP1 whole entry): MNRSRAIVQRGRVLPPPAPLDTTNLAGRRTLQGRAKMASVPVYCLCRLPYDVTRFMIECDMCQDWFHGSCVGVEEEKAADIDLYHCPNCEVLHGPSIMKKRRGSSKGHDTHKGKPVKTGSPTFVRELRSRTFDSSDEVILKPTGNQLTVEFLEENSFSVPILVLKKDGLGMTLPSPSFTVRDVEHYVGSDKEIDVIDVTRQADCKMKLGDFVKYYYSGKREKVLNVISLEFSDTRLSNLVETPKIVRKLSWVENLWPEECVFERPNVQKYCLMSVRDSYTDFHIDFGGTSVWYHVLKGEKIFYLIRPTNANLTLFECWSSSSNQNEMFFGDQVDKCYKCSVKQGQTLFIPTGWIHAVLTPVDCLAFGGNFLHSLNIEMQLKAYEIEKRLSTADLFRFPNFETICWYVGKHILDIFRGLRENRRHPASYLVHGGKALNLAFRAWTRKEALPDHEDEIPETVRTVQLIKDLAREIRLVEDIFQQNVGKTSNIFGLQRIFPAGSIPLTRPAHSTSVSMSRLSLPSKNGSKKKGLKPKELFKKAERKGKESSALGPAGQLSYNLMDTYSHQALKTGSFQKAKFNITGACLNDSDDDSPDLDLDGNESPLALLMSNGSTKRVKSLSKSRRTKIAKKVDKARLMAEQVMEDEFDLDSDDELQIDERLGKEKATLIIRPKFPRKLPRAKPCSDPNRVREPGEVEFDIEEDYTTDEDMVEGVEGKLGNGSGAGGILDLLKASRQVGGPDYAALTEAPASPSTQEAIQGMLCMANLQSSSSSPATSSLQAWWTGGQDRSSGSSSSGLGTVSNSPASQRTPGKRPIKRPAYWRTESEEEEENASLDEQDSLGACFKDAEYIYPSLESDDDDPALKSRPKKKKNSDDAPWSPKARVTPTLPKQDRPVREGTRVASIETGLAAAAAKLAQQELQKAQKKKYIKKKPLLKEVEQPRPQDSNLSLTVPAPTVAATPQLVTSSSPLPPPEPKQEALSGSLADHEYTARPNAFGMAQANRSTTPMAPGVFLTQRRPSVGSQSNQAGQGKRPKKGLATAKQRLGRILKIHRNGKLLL
Description: as §4, §2

KDM6B = KDM6B (Homo sapiens, UniProt O15054); assay: KDM6B enzymatic assay (AlphaLISA); assay type: biochemical
Description: as §4, §2

HBV (genotype C, GTC) = system: HBV (genotype C, GTC); parameters: method as in PMID 31226346; details: humanized mouse model of HBV infection; cited from earlier work
KDM5B = target: T9, KDM5B (Homo sapiens, UniProt Q9UGL1); assay: KDM5B enzymatic assay (CisBio HTRF); assay type: biochemical
T9 construct: purchased Reaction Biology Corp (assay run there as a contract service)
T9 sequence (Q9UGL1 whole entry): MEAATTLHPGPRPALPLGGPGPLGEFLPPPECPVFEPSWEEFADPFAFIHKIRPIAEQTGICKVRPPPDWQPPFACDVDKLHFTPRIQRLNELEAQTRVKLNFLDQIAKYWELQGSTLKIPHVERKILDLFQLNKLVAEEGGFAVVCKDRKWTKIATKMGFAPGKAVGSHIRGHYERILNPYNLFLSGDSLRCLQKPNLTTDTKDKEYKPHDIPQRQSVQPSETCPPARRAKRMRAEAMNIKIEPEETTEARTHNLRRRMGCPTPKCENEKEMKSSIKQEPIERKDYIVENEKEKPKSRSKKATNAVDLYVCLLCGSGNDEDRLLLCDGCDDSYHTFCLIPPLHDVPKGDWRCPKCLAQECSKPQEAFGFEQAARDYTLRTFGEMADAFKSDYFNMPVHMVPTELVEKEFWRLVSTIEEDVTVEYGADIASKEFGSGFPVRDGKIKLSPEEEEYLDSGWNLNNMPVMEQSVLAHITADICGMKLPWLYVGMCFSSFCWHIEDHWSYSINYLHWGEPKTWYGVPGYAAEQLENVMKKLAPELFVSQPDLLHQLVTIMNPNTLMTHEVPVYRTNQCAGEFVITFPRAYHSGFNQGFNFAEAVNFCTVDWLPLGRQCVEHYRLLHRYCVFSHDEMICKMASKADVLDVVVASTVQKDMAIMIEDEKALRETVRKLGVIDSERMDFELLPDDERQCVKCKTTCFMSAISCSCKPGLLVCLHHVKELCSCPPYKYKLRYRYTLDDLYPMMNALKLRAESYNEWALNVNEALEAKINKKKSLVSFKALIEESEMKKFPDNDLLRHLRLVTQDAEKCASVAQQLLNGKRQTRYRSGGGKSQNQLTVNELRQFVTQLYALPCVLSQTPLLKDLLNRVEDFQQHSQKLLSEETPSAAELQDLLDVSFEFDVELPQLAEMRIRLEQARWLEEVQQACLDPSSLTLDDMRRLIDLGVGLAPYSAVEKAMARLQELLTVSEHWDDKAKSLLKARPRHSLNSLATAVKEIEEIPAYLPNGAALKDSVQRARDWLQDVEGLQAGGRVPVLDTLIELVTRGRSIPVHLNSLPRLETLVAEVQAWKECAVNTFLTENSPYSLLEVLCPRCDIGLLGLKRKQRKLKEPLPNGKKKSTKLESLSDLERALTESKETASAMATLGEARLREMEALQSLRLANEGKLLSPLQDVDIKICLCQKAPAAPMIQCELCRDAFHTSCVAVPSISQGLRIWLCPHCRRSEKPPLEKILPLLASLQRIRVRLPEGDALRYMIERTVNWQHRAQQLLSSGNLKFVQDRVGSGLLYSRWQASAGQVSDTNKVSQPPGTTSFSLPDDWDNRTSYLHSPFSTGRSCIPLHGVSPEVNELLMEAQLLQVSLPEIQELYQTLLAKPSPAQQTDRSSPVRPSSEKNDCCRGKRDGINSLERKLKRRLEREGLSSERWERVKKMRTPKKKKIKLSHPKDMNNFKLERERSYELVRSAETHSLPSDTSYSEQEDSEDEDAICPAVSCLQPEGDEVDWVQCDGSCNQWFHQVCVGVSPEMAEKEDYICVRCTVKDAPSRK
Description: as §3, §2

T1 sequence (Q96L73 1538-2696): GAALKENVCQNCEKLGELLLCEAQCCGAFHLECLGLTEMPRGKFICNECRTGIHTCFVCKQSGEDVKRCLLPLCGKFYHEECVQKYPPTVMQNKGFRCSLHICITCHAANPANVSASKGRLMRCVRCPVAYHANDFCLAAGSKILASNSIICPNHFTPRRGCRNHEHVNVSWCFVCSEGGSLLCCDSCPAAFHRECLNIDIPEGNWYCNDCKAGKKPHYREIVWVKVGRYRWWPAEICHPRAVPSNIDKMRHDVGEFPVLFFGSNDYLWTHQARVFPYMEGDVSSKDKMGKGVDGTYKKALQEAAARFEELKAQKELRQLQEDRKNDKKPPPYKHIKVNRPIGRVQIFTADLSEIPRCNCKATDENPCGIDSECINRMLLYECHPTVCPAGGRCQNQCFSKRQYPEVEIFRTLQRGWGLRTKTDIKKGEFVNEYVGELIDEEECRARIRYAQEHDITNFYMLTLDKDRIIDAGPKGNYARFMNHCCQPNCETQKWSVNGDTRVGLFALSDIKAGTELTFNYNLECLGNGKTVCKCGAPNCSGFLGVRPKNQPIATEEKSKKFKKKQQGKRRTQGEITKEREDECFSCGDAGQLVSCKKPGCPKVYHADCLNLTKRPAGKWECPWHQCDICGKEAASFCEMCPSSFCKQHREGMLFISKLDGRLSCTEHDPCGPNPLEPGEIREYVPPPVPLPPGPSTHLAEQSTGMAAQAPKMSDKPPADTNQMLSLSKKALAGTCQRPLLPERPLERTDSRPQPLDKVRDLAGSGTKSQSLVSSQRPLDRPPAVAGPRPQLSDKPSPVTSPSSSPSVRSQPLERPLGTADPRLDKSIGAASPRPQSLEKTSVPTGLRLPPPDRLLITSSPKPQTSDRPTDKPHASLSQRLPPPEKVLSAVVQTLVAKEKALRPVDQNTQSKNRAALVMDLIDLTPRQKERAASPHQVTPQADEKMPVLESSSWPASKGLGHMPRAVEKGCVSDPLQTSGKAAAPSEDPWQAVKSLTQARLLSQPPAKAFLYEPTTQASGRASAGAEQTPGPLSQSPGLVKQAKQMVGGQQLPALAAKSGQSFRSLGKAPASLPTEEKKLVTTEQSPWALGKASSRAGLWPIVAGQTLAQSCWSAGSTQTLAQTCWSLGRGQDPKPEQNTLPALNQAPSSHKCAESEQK

Nc1ncnc2c1ncn2[C@@H]1O[C@H](CSCC[C@H](N)C(=O)O)[C@@H](O)[C@H]1O [SAH, S-(5′-Adenosyl)-L-homocysteine, reference compound]
IC50 (NSD1): 93 µM | IC50 (NSD3): 15 µM | IC50 (SETDB1): 17 µM | IC50 (GLP): 2.2 µM | IC50 (SET7/9): 70 µM

O=C(O)c1ccnc(C(=O)O)c1 [PDCA, 2,4-Pyridinedicarboxylic acid, reference compound]
IC50 (KDM5A): 0.41 µM | IC50 (KDM4B): 0.86 µM | IC50 (KDM2B): 19 µM | IC50 (KDM6A): 99 µM

COc1ccc(C[C@H](N)C(=O)N[C@H]2[C@@H](O)[C@H](n3cnc4c(N(C)C)ncnc43)O[C@@H]2CO)cc1 [Puromycin, reference compound]
CC50 [1]: 1.3 ± 1.4 µM | CC50 (Cytotoxicity CC50, PHH): 1.6 ± 1.8 µM | CC50 (Cytotoxicity CC50, PBMC): 0.61 ± 1.3 µM | CC50 (Cytotoxicity CC50, MRC-5): 0.35 µM | CC50 (Cytotoxicity CC50, MT-4): 0.1 µM | CC50 (Cytotoxicity CC50, NRVM): 0.57 ± 1.4 µM | CC50 (Cytotoxicity CC50, Huh-7): 0.67 ± 1.5 µM | CC50 [2]: 0.44 µM

Oc1cccc2cccnc12 [8-OH Quinoline, 8-hydroxyquinoline, reference compound]
IC50 (KDM7B): 13 µM | IC50 (KDM6B): 6.4 µM

CC1=C(/C=C/C(C)=C/C=C/C(C)=C\C(=O)O)C(C)(C)CCC1 [Accutane]
in vivo antiviral activity (HBV (genotype C, GTC)): lack of in vivo antiviral activity

CCN(CCN(C)C)C(=O)CNCc1cc(C(=O)O)c(Br)cn1 [GS-444]
fold reduced KDM5B inhibitory activity over GS-080 (KDM5B; IC50 for KDM5B compared with GS-080): 7000 fold | IC50 (KDM5B; enzyme concentration 1.2 nM, IC50 lower than enzyme concentration, likely underestimates potency): 2.76 µM
